The values that follow come from BindingDB's records for doi:10.1016/j.ejmech.2023.115347 (Johann Wolfgang Goethe University, 2023).

Structures are written as SMILES. Bounds are passed on as bounds.

The target of the assay is Ribosomal protein S6 kinase alpha-1 (Homo sapiens) (UniProt Q15418). The experiment in a line: Inhibition of full length NanoLuc fused RSK1b (unknown origin) transfected in HEK293T cells using NanoBRET NanoGlo substrate incubated for 2 hrs in presence of tracer by NanoBRET assay. (In general: In BRET a luciferase serves as donor, and the signal depends on an acceptor being close.)
Chain of Ribosomal protein S6 kinase alpha-1 (Homo sapiens) (Q15418 whole entry, looked up, the tested form may be a part): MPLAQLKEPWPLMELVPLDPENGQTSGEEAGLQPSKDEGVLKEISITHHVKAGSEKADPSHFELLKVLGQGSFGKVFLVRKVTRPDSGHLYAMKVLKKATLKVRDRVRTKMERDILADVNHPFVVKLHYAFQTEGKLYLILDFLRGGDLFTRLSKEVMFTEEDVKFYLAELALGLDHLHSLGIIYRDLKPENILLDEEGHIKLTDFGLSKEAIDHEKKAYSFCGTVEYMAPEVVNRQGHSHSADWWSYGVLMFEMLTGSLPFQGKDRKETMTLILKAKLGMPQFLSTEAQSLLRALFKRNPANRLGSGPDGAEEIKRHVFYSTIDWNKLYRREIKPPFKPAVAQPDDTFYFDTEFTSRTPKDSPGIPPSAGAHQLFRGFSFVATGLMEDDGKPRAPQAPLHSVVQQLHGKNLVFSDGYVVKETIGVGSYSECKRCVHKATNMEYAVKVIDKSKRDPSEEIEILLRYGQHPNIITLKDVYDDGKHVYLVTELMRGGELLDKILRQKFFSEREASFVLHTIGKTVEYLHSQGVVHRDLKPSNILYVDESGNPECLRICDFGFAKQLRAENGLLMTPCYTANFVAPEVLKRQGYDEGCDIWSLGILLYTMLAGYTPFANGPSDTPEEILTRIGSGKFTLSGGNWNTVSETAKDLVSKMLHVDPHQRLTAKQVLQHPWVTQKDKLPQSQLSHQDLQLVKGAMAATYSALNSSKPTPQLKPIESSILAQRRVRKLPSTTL

A word on the IC50: it is the concentration that inhibits the measured activity by half. `CNc1ncc2cc(-c3cc(F)ccc3F)c(=O)n(CCCCN)c2n1`: the IC50 is over 45 µM.
